In patent US10993955B2, “Medicament for use in treating diabetes” (Shandong Zhonghai Pharmaceutical CO. LTD, priority 2016, dated 2021) one finds Blood sugar and Glucose in urine data, which are given here for one molecule.

The subject of the test is diabetic patients. Briefly: Therapeutic effect in diabetic patients (blood glucose, urine glucose), 3 months treatment. Type of test: in vivo, human. The text has this:
The medicament hereof is used to compare the therapeutic effects in diabetic patients, and the details are as follows:
The applicant has divided 100 diabetic patients into treatment group. Among these patients, 6 are aged 16 to 30 years old, 14 are 31 to 45 years old, 28 are 46 to 60 years old, and 52 are 61 to 75 years old.
During the treatment, the patients in the treatment group discontinue the administration of any other medicaments, and only take the medicament described in Embodiment 3 hereof, once in the morning and evening, 2 g each time; the patients in the control group take D-860 Rastinon according to the package insert, and the patients in treatment group and the control group of the invention were treated and observed for 3 months, and the results are as follows: […]

[1] abbreviates: diabetic patients aged 16-30, after 3 months treatment.
[2] abbreviates: diabetic patients aged 31-45, after 3 months treatment.
The mark [3] stands for this setting: diabetic patients aged 46-60, after 3 months treatment.
Where [4] appears, read: diabetic patients aged 61-75, after 3 months treatment.

Consider `CCCCNC(=O)NS(=O)(=O)c1ccc(C)cc1` [D-860 Rastinon], for which the Blood sugar is 6.2 mmol/L under setting [1], 6.5 to 6.7 mmol/L under setting [2], 7.3 to 7.6 mmol/L under setting [3] and 9.0 to 9.2 mmol/L under setting [4]. Further, the Glucose in urine was 1.0 mmol/L under setting [1], 28.6 to 32.2 mmol/L under setting [2], 31 to 35 mmol/L under setting [3] and 35 to 58 mmol/L under setting [4].
